We go through 60 compounds from USRE46630E1, “Substituted 4-pyridones and their use as inhibitors of neutrophil elastase activity” (Boehringer Ingelheim International GmbH, priority 2012, dated 2017).

For the assay, the target named is T1, Human neutrophil elastase (Homo sapiens, UniProt P08246).
T1 construct: purchased Calbiochem 324681
T1 sequence (P08246 30-267): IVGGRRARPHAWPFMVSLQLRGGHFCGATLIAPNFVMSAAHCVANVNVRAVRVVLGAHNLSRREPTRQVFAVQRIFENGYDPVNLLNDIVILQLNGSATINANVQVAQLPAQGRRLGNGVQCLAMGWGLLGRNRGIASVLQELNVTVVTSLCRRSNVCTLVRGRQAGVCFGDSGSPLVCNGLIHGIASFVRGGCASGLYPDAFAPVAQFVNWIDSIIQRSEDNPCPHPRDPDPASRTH
Put plainly: Human Neutrophil Elastase Assay. It is filed as biochemical. Conditions: Neutrophil Elastase assay; substrate MeOSuc-Ala-Ala-Pro-Val-AMC 250 μM; 15 min preincubation, 60 min incubation at room temperature; pH 7.5. An outline of the steps: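 Run in 100 mM Tris, 500 mM NaCl, pH 7.5 with 0.01% BSA, with compounds prediluted in DMSO then buffer (5% DMSO final). Fluorescence was read at 380 nm excitation/460 nm emission after enzyme inactivation. Values were normalised to inactivated-enzyme (0%) and uninhibited-enzyme (100%) controls.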

`Cc1noc(CNC(=O)c2cn(C(C)c3ccc(C#N)cc3)c(C)c(-c3cccc(C(F)F)c3)c2=O)n1` (stereo not drawn) [Example 8.2] had an IC50 of 1.9 nM.

In the case of `Cc1c(-c2cccc(C(F)F)c2)c(=O)c(C(=O)NCCCS(C)(=O)=O)cn1C(C)c1ccc(C#N)cc1` (stereo not drawn) [Example 8.3], 1.3 nM corresponded to half-maximal inhibition (IC50).

In turn, `Cc1c(-c2cccc(C(F)F)c2)c(=O)c(C(=O)NCCCO)cn1C(C)c1ccc(C#N)cc1` (stereo not drawn) [Example 8.4] came in with an IC50 of 1.8 nM.

With `Cc1nnc(CNC(=O)c2cn(C(C)c3ccc(C#N)cc3)c(C)c(-c3cccc(C(F)F)c3)c2=O)o1` (stereo not drawn) [Example 8.5], half-maximal inhibition (IC50) required 1.2 nM.

Compound `Cc1c(-c2cccc(C(F)F)c2)c(=O)c(C(=O)NC2CNC(=O)C2)cn1C(C)c1ccc(C#N)cc1` (stereo not drawn) [Example 8.7] gave an IC50 of 1.7 nM.

`Cc1c(-c2cccc(C(F)F)c2)c(=O)c(C(=O)NCC[S+](C)[O-])cn1C(C)c1ccc(C#N)cc1` (stereo not drawn) [Example 8.8]: inhibition was half-maximal at 1.1 nM (IC50).

`Cc1c(-c2cccc(C(F)F)c2)c(=O)c(C(=O)NCCO)cn1C(C)c1ccc(C#N)cc1` (stereo not drawn) [Example 8.9]: 1.9 nM corresponded to half-maximal inhibition (IC50).

In turn, `Cc1c(-c2cccc(C(F)F)c2)c(=O)c(C(=O)NC2CCN(C)C2=O)cn1C(C)c1ccc(C#N)cc1` (stereo not drawn) [Example 8.10] yielded an IC50 of 1.6 nM.

`Cc1c(-c2cccc(C(F)F)c2)c(=O)c(C(=O)NCCN(C)C)cn1C(C)c1ccc(C#N)cc1` (stereo not drawn) [Example 8.11]: the IC50 is 4.3 nM.

`Cc1c(-c2cccc(C(F)F)c2)c(=O)c(C(=O)NC2CCNC2=O)cn1C(C)c1ccc(C#N)cc1` (stereo not drawn) [Example 8.12]: half-maximal inhibition (IC50) required 1.4 nM.

`Cc1c(-c2cccc(C(F)F)c2)c(=O)c(C(=O)NCCCCO)cn1C(C)c1ccc(C#N)cc1` (stereo not drawn) [Example 8.13] gave an IC50 of 3.2 nM.

In turn, `Cc1c(-c2cccc(C(F)F)c2)c(=O)c(C(=O)NCc2cnn(C)c2)cn1C(C)c1ccc(C#N)cc1` (stereo not drawn) [Example 8.14] returned an IC50 of 3.6 nM.

`Cc1c(-c2cccc(C(F)F)c2)c(=O)c(C(=O)NCCn2cccn2)cn1C(C)c1ccc(C#N)cc1` (stereo not drawn) [Example 8.15]: half-maximal inhibition (IC50) required 4.4 nM.

`Cc1c(-c2cccc(C(F)F)c2)c(=O)c(C(=O)NCc2ccnn2C)cn1C(C)c1ccc(C#N)cc1` (stereo not drawn) [Example 8.16]: inhibition was half-maximal at 2.4 nM (IC50).

On to `Cc1c(-c2cccc(C(F)F)c2)c(=O)c(C(=O)NCc2ccno2)cn1C(C)c1ccc(C#N)cc1` (stereo not drawn) [Example 8.17], for which the IC50 stood at 3.1 nM.

Compound `Cc1c(-c2cccc(C(F)F)c2)c(=O)c(C(=O)NCc2cccnc2)cn1C(C)c1ccc(C#N)cc1` (stereo not drawn) [Example 8.18] gave an IC50 of 2.4 nM.

`Cc1c(-c2cccc(C(F)F)c2)c(=O)c(C(=O)NCc2ccccn2)cn1C(C)c1ccc(C#N)cc1` (stereo not drawn) [Example 8.19]: the IC50 was 1.7 nM.

As to `Cc1c(-c2cccc(C(F)F)c2)c(=O)c(C(=O)NCc2ccncc2)cn1C(C)c1ccc(C#N)cc1` (stereo not drawn) [Example 8.20], the IC50 was 1 nM.

As for `CCNC(=O)c1cn(C(C)c2ccc(C#N)cc2)c(C)c(-c2cccc(C(F)F)c2)c1=O` (stereo not drawn) [Example 8.21], it took 3 nM to reach half-maximal inhibition (IC50).

Compound `Cc1c(-c2cccc(C(F)F)c2)c(=O)c(C(N)=O)cn1C(C)c1ccc(C#N)cc1` (stereo not drawn) [Example 8.22] returned an IC50 of 21.6 nM.

Compound `Cc1nc(CNC(=O)c2cn(C(C)c3ccc(C#N)cc3)c(C)c(-c3cccc(C(F)F)c3)c2=O)no1` (stereo not drawn) [Example 8.23] returned an IC50 of 3.4 nM.

`CCOCCNC(=O)c1cn(C(C)c2ccc(C#N)cc2)c(C)c(-c2cccc(C(F)F)c2)c1=O` (stereo not drawn) [Example 8.24]: the half-inhibitory concentration (IC50) came out at 1.7 nM.

Turning to `COCCCNC(=O)c1cn(C(C)c2ccc(C#N)cc2)c(C)c(-c2cccc(C(F)F)c2)c1=O` (stereo not drawn) [Example 8.25], the IC50 was 1.8 nM.

As to `COCCNC(=O)c1cn(C(C)c2ccc(C#N)cc2)c(C)c(-c2cccc(C(F)F)c2)c1=O` (stereo not drawn) [Example 8.26], the IC50 was determined as 1.8 nM.

As for `CCCNC(=O)c1cn(C(C)c2ccc(C#N)cc2)c(C)c(-c2cccc(C(F)F)c2)c1=O` (stereo not drawn) [Example 8.27], the IC50 worked out at 3 nM.

`Cc1c(-c2cccc(C(F)F)c2)c(=O)c(C(=O)NCc2cnn(C)c2)cn1C(C)c1ccc(C#N)cc1` (stereo not drawn) [Example 8.28] gave a half-maximal inhibitory concentration (IC50) of 3.3 nM.

Turning to `Cc1c(-c2ccnc(C(F)(F)F)c2)c(=O)c(C(=O)NCCCO)cn1C(C)c1ccc(C#N)cc1` (stereo not drawn) [Example 9.1], the IC50 is 4.5 nM.

Compound `Cc1c(-c2ccnc(C(F)(F)F)c2)c(=O)c(C(=O)NCCS(C)(=O)=O)cn1C(C)c1ccc(C#N)cc1` (stereo not drawn) [Example 9.2] came in with an IC50 of 3.3 nM.

Regarding `Cc1c(-c2ccnc(C(F)(F)F)c2)c(=O)c(C(=O)NCC[S+](C)[O-])cn1C(C)c1ccc(C#N)cc1` (stereo not drawn) [Example 9.3], the midpoint of inhibition, the IC50, lay at 3.9 nM.

Regarding `Cc1c(-c2ccnc(C(F)(F)F)c2)c(=O)c(C(=O)NC2CCNC2=O)cn1C(C)c1ccc(C#N)cc1` (stereo not drawn) [Example 9.4], the IC50 came out at 4.1 nM.

On to `Cc1c(-c2ccnc(C(F)(F)F)c2)c(=O)c(C(=O)NCCCS(C)(=O)=O)cn1C(C)c1ccc(C#N)cc1` (stereo not drawn) [Example 9.6], for which the IC50 is 3.2 nM.

With `Cc1nnc(CNC(=O)c2cn(C(C)c3ccc(C#N)cc3)c(C)c(-c3ccnc(C(F)(F)F)c3)c2=O)o1` (stereo not drawn) [Example 9.7], the IC50 stood at 7 nM.

Take `Cc1c(-c2ccnc(C(F)(F)F)c2)c(=O)c(C(=O)NC2CNC(=O)C2)cn1C(C)c1ccc(C#N)cc1` (stereo not drawn) [Example 9.8]: the IC50 came to 4.2 nM.

`Cc1c(-c2ccnc(C(F)(F)F)c2)c(=O)c(C(=O)NCCO)cn1C(C)c1ccc(C#N)cc1` (stereo not drawn) [Example 9.9] showed an IC50 of 7.6 nM.

As for `Cc1c(-c2ccnc(C(F)(F)F)c2)c(=O)c(C(=O)NCCN(C)C)cn1C(C)c1ccc(C#N)cc1` (stereo not drawn) [Example 9.10], the IC50 turned out to be 12.4 nM.

Compound `Cc1c(-c2ccnc(C(F)(F)F)c2)c(=O)c(C(=O)NCCCN(C)C)cn1C(C)c1ccc(C#N)cc1` (stereo not drawn) [Example 9.11] returned an IC50 of 18.3 nM.

`Cc1c(-c2ccnc(C(F)(F)F)c2)c(=O)c(C(=O)NC2CCN(C)C2=O)cn1C(C)c1ccc(C#N)cc1` (stereo not drawn) [Example 9.12]: the IC50 came to 4.6 nM.

In turn, `Cc1c(-c2ccnc(C(F)(F)F)c2)c(=O)c(C(=O)NCC#N)cn1C(C)c1ccc(C#N)cc1` (stereo not drawn) [Example 9.13] displayed an IC50 of 1.7 nM.

Consider `CCCNC(=O)c1cn(C(C)c2ccc(C#N)cc2)c(C)c(-c2ccnc(C(F)(F)F)c2)c1=O` (stereo not drawn) [Example 9.14], for which the IC50 stood at 7 nM.

The compound `Cc1c(-c2ccnc(C(F)(F)F)c2)c(=O)c(C(=O)NCC2COC2)cn1C(C)c1ccc(C#N)cc1` (stereo not drawn) [Example 9.15] came in with an IC50 of 5.7 nM.

In turn, `Cc1c(-c2ccnc(C(F)(F)F)c2)c(=O)c(C(=O)NCc2ccnn2C)cn1C(C)c1ccc(C#N)cc1` (stereo not drawn) [Example 9.16] registered an IC50 of 6.7 nM.

In turn, `Cc1c(-c2ccnc(C(F)(F)F)c2)c(=O)c(C(=O)NC2COC2)cn1C(C)c1ccc(C#N)cc1` (stereo not drawn) [Example 9.17] displayed an IC50 of 10.1 nM.

As for `Cc1c(-c2ccnc(C(F)(F)F)c2)c(=O)c(C(=O)NCC(N)=O)cn1C(C)c1ccc(C#N)cc1` (stereo not drawn) [Example 9.18], the midpoint of inhibition, the IC50, lay at 7.5 nM.

For `Cc1c(-c2ccnc(C(F)(F)F)c2)c(=O)c(C(=O)NCc2cnn(C)c2)cn1C(C)c1ccc(C#N)cc1` (stereo not drawn) [Example 9.19], the concentration for half-maximal inhibition (IC50) amounted to 8.9 nM.

For the compound `Cc1c(-c2ccnc(C(F)(F)F)c2)c(=O)c(C(=O)NCC2CC2)cn1C(C)c1ccc(C#N)cc1` (stereo not drawn) [Example 9.20], the IC50 turned out to be 10.9 nM.

Compound `Cc1c(-c2ccnc(C(F)(F)F)c2)c(=O)c(C(=O)NCC2CCOC2)cn1C(C)c1ccc(C#N)cc1` (stereo not drawn) [Example 9.21] had an IC50 of 9.5 nM.

In the case of `Cc1c(-c2ccnc(C(F)(F)F)c2)c(=O)c(C(=O)NCC(F)F)cn1C(C)c1ccc(C#N)cc1` (stereo not drawn) [Example 9.22], half-maximal inhibition (IC50) required 7.3 nM.

As to `Cc1c(-c2ccnc(C(F)(F)F)c2)c(=O)c(C(=O)NCC2CCC2)cn1C(C)c1ccc(C#N)cc1` (stereo not drawn) [Example 9.23], the half-inhibitory concentration (IC50) amounted to 14.4 nM.

`Cc1c(-c2ccnc(C(F)(F)F)c2)c(=O)c(C(=O)NCC2CC3CCC2O3)cn1C(C)c1ccc(C#N)cc1` (stereo not drawn) [Example 9.24] gave a half-maximal inhibitory concentration (IC50) of 9.8 nM.

For the compound `Cc1c(-c2ccnc(C(F)(F)F)c2)c(=O)c(C(=O)NC2CCOCC2)cn1C(C)c1ccc(C#N)cc1` (stereo not drawn) [Example 9.25], it took 11.4 nM to reach half-maximal inhibition (IC50).

On to `Cc1c(-c2ccnc(C(F)(F)F)c2)c(=O)c(C(=O)NCC2CCCO2)cn1C(C)c1ccc(C#N)cc1` (stereo not drawn) [Example 9.26], for which the IC50 was 12.1 nM.

The compound `Cc1c(-c2ccnc(C(F)(F)F)c2)c(=O)c(C(=O)NCC2CCO2)cn1C(C)c1ccc(C#N)cc1` (stereo not drawn) [Example 9.27] showed an IC50 of 13.7 nM.

Regarding `Cc1c(-c2ccnc(C(F)(F)F)c2)c(=O)c(C(=O)NCC2CCOCC2)cn1C(C)c1ccc(C#N)cc1` (stereo not drawn) [Example 9.28], half-maximal inhibition (IC50) required 12.8 nM.

`Cc1c(-c2ccnc(C(F)(F)F)c2)c(=O)c(C(=O)NC2CCCCC2O)cn1C(C)c1ccc(C#N)cc1` (stereo not drawn) [Example 9.29] returned an IC50 of 22.3 nM.

Turning to `Cc1c(-c2ccnc(C(F)(F)F)c2)c(=O)c(C(=O)NCC2CC3CCC2O3)cn1C(C)c1ccc(C#N)cc1` (stereo not drawn) [Example 9.30], inhibition was half-maximal at 16.3 nM (IC50).

Take `Cc1c(-c2ccnc(C(F)(F)F)c2)c(=O)c(C(=O)NCC(=O)OC(C)C)cn1C(C)c1ccc(C#N)cc1` (stereo not drawn) [Example 9.31]: the half-maximal inhibitory concentration (IC50) came to 18.7 nM.

`Cc1c(-c2ccnc(C(F)(F)F)c2)c(=O)c(C(=O)NCC2CCCO2)cn1C(C)c1ccc(C#N)cc1` (stereo not drawn) [Example 9.32] had an IC50 of 19.4 nM.

In turn, `COC(=O)C(C)NC(=O)c1cn(C(C)c2ccc(C#N)cc2)c(C)c(-c2ccnc(C(F)(F)F)c2)c1=O` (stereo not drawn) [Example 9.33] showed an IC50 of 23.1 nM.

With `Cc1c(-c2ccnc(C(F)(F)F)c2)c(=O)c(C(=O)NC2CCOC2)cn1C(C)c1ccc(C#N)cc1` (stereo not drawn) [Example 9.34], the IC50 turned out to be 23.5 nM.

For `Cc1c(-c2ccnc(C(F)(F)F)c2)c(=O)c(C(=O)NC2CCCC2O)cn1C(C)c1ccc(C#N)cc1` (stereo not drawn) [Example 9.35], the IC50 came to 26.2 nM.

What is called IC50 is the concentration at which inhibition is half-maximal. Low values mean higher potency, high ones lower potency.
